Columns and labels:
[1] = tested on: Colo-205 human colon adenocarcinoma cell line (doxorubicin-sensitive); assay: MTT cytotoxicity assay in Colo-205; type: cell-based; details: 72 h incubation
Method: (§1) The in vitro cytotoxic activity of the novel water-soluble amino acid derivatives of HQCl and their RhCp* and RuCym complexes was measured by the thiazolyl blue tetrazolium bromide (MTT) assay in two human colon adenocarcinoma cell lines (Colo-205 and Colo-320) and in one non-tumoral human lung fibroblast cell line (MRC-5). The results are given in terms of IC50 values (Table 1). Colo-205 is a drug-sensitive cell line with a normal ABCB1 transporter expression pattern, while Colo-320 is multidrug-resistant and overexpresses the ABCB1 system.
(§2) All cell culture reagents were obtained from Sigma-Aldrich and plasticware from Sarstedt (Nümbrecht, Germany). Human colonic Colo-205 doxorubicin-sensitive and Colo-320/MDR-LRP multidrug-resistant adenocarcinoma and MRC-5 human embryonal lung fibroblast cell lines were purchased from LGC Promochem, Teddington, UK. The colonic adenocarcinoma cells were cultured in Roswell Park Memorial Institute (RPMI) 1640 medium supplemented with 10% heat-inactivated fetal bovine serum, 2 mM L-glutamine, 1 mM sodium pyruvate and […]. The MRC-5 cell line was cultured in Eagle’s Minimal Essential Medium (EMEM, Sigma-Aldrich, St. Louis, MO, USA) supplemented with a non-essential amino acid (NEAA) mixture (Sigma-Aldrich, St. Louis, MO, USA) a selection of vitamins, 10% heat-inactivated foetal bovine serum (FBS), 2 mM L-glutamine (Sigma-Aldrich, St. Louis, MO, USA), 1 mM Na-pyruvate (Sigma-Aldrich, St. Louis, MO, USA), nystatin (Sigma-Aldrich, St. Louis, MO, USA) and a penicillin-streptomycin mixture (Sigma-Aldrich, St. Louis, MO, USA) in con-centrations of 100 U/L and 10 mg/L, respectively. The cells were incubated at 37 °C, in a 5% CO2, 95% air atmosphere. All cell lines were detached with Trypsin-Versene (EDTA) solution for 5 min at 37 °C.
(§3) The tested compounds were dissolved in 10% (v/v) DMSO/H2O using 4 mM concentration. Doxorubicin (Merck, Darmstadt, Germany) was used as a positive control. Then stock solutions were diluted in complete culture medium, and two-fold serial dilutions of compounds were prepared in 100 μL of the medium, horizontally. The semi-adherent colonic adenocarcinoma cells were treated with Trypsin-Versene (EDTA) solution. They were adjusted to a density of 1 × 10^4 cells in 100 μL of RPMI 1640 or EMEM medium and were added to each well, with the exception of the medium control wells. The final volume of the wells containing compounds and cells was 200 μL. The plates containing Colo-205, Colo-320 or MRC-5 cells were incubated at 37 °C for 72 h; at the end of the incubation period, 20 μL of MTT solution (from a stock solution of 5 mg/mL) were added to each well. After incubation at 37 °C for 4 h, 100 μL of SDS solution (10% in 0.01 M HCI) were added to each well, and the plates were further incubated at 37 °C overnight. […] The IC50 values were obtained from at least 3 independent experiments.

[2] = tested on: Colo-320 human colon adenocarcinoma cell line (multidrug-resistant); assay: MTT cytotoxicity assay in Colo-320; type: cell-based; details: 72 h incubation
Method: as §1, §2, §3

[3] = tested on: Ac-Phe–His–Ala-NH2 (FHA); assay: Binding to the His model tripeptide FHA by 1H NMR; details: pH 7.4 (PBS’), 0.5 or 1 mM
Text: The slow binding kinetics indicates coordination binding mode, and the monodentate coordination of a side chain donor of HSA takes place most likely by the replacement of the co-ligand water or chloride, while the original bidentate (N,O) ligand remains coordinated, as it was also reported to analogous high stability RuCym and RhCp* complexes.
Similar reaction rates with FHA were found for the HQCl-D-Pro and HQCl-D-hPro complexes, and the reaction with this simple oligopeptide is much faster compared to the HSA. Conditional stability constants determined for the complex-FHA ternary species by ^1H NMR spectroscopic measurements (exemplary spectra are presented in Figure S29) are shown in Table 4. […] In all, this oligopeptide model can serve as a good binding model for surface-exposed side chains, although it provides limited information about binding events at more deeply located binding pockets of HSA, where the role of secondary interactions might be more significant.
Bruker Avance III HD Ascend 500 Plus instrument (Billerica, MA, USA) was used for NMR studies. ^1H NMR spectroscopic measurements were carried out with a WATERGATE water suppression pulse scheme in the presence of 10% (v/v) D2O in most cases. DSS internal standard was added to samples to obtain reference peaks. Complex concentrations were 0.5 mM or 1.0 mM, and 0.5 equiv. HSA was added. ^1H NMR titrations were carried out in the presence of 0.2 M KNO3. With the FHA model peptide, the measurements were performed at 0.5 or 1 mM metal complex concentrations, and 1:1, 1:2 or 2:1 peptide-to-metal complex ratios were applied. The computer program HypSpec was used to obtain stability constants.

[4] = biological target: T1, HSA site I (subdomain IIA) (Homo sapiens, UniProt P02768); assay: Trp-214 quenching, spectrofluorometry; type: binding; details: cHSA = 1 µM, pH 7.4 (PBS’), λEX = 295 nm
T1 construct: purchased Sigma-Aldrich A8763
T1 sequence (P02768 25-609): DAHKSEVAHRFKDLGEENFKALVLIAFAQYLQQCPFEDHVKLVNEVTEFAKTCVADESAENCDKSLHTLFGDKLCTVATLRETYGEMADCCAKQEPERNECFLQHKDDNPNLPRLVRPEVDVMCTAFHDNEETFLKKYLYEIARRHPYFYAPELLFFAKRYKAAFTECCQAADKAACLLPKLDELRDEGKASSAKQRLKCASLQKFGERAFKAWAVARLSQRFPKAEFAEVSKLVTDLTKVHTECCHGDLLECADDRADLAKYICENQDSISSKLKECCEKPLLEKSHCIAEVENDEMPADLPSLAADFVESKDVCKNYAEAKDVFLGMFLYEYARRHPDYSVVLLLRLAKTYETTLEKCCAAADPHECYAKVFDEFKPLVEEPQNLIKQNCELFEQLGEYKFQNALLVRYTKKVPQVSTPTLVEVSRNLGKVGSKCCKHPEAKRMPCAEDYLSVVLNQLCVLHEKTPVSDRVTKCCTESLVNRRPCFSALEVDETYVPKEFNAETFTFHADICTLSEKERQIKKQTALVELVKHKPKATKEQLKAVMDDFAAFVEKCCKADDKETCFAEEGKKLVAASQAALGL
Method: Tryptophan (Trp-214) quenching and dansylglycine (DG) site marker displacement experiments were performed to calculate binding constants for site I and II, respectively, similar to our previous works.
Fluorescence measurements were carried out on a Fluoromax (Horiba Jobin Yvon, Longjumeau, France) spectrofluorometer using 1 cm × 1 cm quartz cuvette. Samples contained 1 µM HSA or 1 µM DG and 1 µM HSA, or 20 µM (nucleotide) ct-DNA and 5 µM EB, and the complex concentration was varied between 0 and 40 µM or 0 and 300 µM, respectively. Spectroscopic measurements were carried out on individually prepared samples. Excitation wavelengths were 295 nm for Trp-214 quenching, 340 nm for the DG displacement studies and 510 nm for the ct-DNA–EB system. The calculated conditional stability constants for HSA–complex species were obtained using the computer program HypSpec. Calculations always were based on data obtained from at least two independent measurements. Self-absorbance and inner filter effect had to be taken into account, and corrections were made as was described in our former works.

For `Cc1c(C)c(C)[c-](C)c1C.O=C(O)[C@H]1CCC[NH+]1Cc1cc(Cl)c2cccnc2c1[O-].[Cl-].[Cl-].[Rh+3]` [RhCp*–HQCl-D-Pro, [RhCp*(HQCl-D-Pro)Cl]Cl], the IC50 [1] was 31.5 ± 1.4 µM, the IC50 [2] was 34.3 ± 1 µM and the “FHA logKFHA′” value [3] was 4.4 ± 0.2. For the same compound, the “Trp-214 Quenching logKQ′, Site I” value [4] was 5.6 ± 0.1.
In the case of `Cc1c(C)c(C)[c-](C)c1C.O=C(O)[C@H]1CCCC[NH+]1Cc1cc(Cl)c2cccnc2c1[O-].[Cl-].[Cl-].[Rh+3]` [RhCp*–HQCl-D-hPro, [RhCp*(HQCl-D-hPro)Cl]Cl], the IC50 [1] is reported as 21.5 ± 0.6 µM, the IC50 [2] is reported as 18.9 ± 0.54 µM and the “FHA logKFHA′” value [3] is reported as 4.5 ± 0.2. For the same compound, the “Trp-214 Quenching logKQ′, Site I” value [4] was 5.6 ± 0.1.
`Cc1ccc(C(C)C)cc1.O=C(O)[C@H]1CCC[NH+]1Cc1cc(Cl)c2cccnc2c1[O-].[Cl-].[Cl-].[Ru+2]` [RuCym–HQCl-D-Pro, [RuCym(HQCl-D-Pro)Cl]Cl] was tested, and the IC50 [1] was over 100 µM, the IC50 [2] was over 100 µM and the “FHA logKFHA′” value [3] was 4.4 ± 0.3. For the same compound, the “Trp-214 Quenching logKQ′, Site I” value [4] was 5.5 ± 0.1.
For `Cc1ccc(C(C)C)cc1.O=C(O)[C@H]1CCCC[NH+]1Cc1cc(Cl)c2cccnc2c1[O-].[Cl-].[Cl-].[Ru+2]` [RuCym–HQCl-D-hPro, [RuCym(HQCl-D-hPro)Cl]Cl], the IC50 [1] was over 100 µM, the IC50 [2] was over 100 µM and the “FHA logKFHA′” value [3] was 4.6 ± 0.2. For the same compound, the “Trp-214 Quenching logKQ′, Site I” value [4] was 5.3 ± 0.1.
